Test results: patent publication US6919208B2, “Methods and compositions for enhancing the delivery of a nucleic acid to a cell” (The Children's Hospital of Philadelphia, priority 2000, dated 2005)
Like-named read-outs stand apart in the source and are kept apart here.

Key:
[1] = test system: A10 cells
Experimental: A10 cells were grown on native type I collagen containing 0, 15 and 50 micrograms per milliliter of Tenascin C. The cells were transfected with p-EGFP-N3 (green fluorescent protein) plasmid DNA.

[2] = test system: A10 cells; experiment: p-EGFP-N3 (GFP) plasmid transfection of A10 cells on native type I collagen with cytochalasin D added after lipofection; type: cell-based, Rat; conditions: 1 nanomolar
Experimental: A10 cells were grown on native type I collagen. […] Immediately after lipofection, cytochalasin D at a final concentration of 1 nanomolar was either added to cells for thirty minutes, added to cells for an overnight incubation or not added at all (control). The fluorescence of control cells, cells treated with cytochalasin D for thirty minutes, and cells treated with cytochalasin D for an overnight incubation (FIGS. 6A, 6B and 6C, respectively) was assessed. Bright field micrographs were also taken of the control cells, cells treated with cytochalasin D for thirty minutes, and cells treated with cytochalasin D for an overnight incubation (FIGS. 7A, 7B and 7C, respectively).

Molecule | cell morphology (bright field micrograph) [1] | transfection (GFP expression), dose dependence ([1]; 0, 15 and 50 micrograms per milliliter in native type I collagen, 24 h after transfection) | transfection (GFP fluorescence) ([1]; 15 micrograms per milliliter in native type I collagen, 24 h after transfection) | transfection (GFP fluorescence) ([1]; 50 micrograms per milliliter in native type I collagen, 24 h after transfection) | transfection (GFP expression), time dependence ([2]; added immediately after lipofection) | transfection relative to control cells ([2]; overnight exposure) | transfection relative to control cells ([2]; thirty minute exposure)
Tenascin C: extracellular matrix protein abundantly expressed within remodeling tissues; added to native type I collagen | normal cell morphology | dose-dependent increase in transfection | increased transfection | highest degree of transfection | – | – | –
C=C1[C@@H](C)[C@H]2[C@H](Cc3ccccc3)NC(=O)[C@]23[C@H](OC(C)=O)/C=C/[C@@](C)(O)C(=O)[C@@H](C)C/C=C/[C@H]3[C@@H]1O [cytochalasin D] | – | – | – | – | time-dependent increase in transfection | notably higher amount of transfection | increased transfection
